# Experimental data: EP1161410B1, “RETINOID ANTAGONISTS AND USE THEREOF” (Basilea Pharmaceutica AG, priority 1999, dated 2000)
# Legend:
# IL-12 = IL-12 production by PBMC primed with IFNγ and stimulated with SAC; type: cell-based, human; conditions: IFNγ+SAC alone 360
# Protocol: THP-1 cells were obtained from American Tissue Culture Collection and cultured in complete medium. To assay for IL-12 production, THP-1 cells, 1.25 x 10^6 cells/ml, were stimulated with S. aureus Cowan strain (SAC) (1/1000) and human recombinant interferon-γ (huIFN-γ (1000 U/ml) [Ma et al., J. Exp. Med. 183, 147-157 (1996)]. Alternatively, 0.5 x 10^6 human peripheral blood mononuclear cells (PBMC) (1 ml culture in 48 well plates) were primed with huIFN-γ (1000 U/ml) for 16 hours at 37°C, and then stimulated with SAC (1/1000). Supernatants were collected after 48 hours and freezed at -20 °C until assayed [Panina-Bordignon et al., J. Clin. Invest. 100, 1513-1519 (1997)].
# IL-12 production was measured by specific enzyme linked immuno sorbant assay (ELISA), using 20C2 antibody (rat anti human IL-12 heterodimer p40-p35), at 2.5 µg/ml in coating buffer, and peroxidase-conjugated 4D6 antibody (rat anti human IL-12) at 250 ng/ml in assay buffer as described [Zhang et al., J. Clin. Invest. 93, 1733-1739 (1994)]. Standard (recombinant human IL-12, 800 pg/ml to 6 pg/ml) and samples (100 µl) diluted in assay buffer were added to duplicate wells. Absorbance was read at 450-650 nm. The unknown IL-12 concentrations of the samples were read from the corresponding standard curve and multiplied by the corresponding dilution factor. Maximal IL-12 production varied between 200 and 400 pg/ml.
# Lyophilized retinoid antagonists were diluted in DMSO under yellow light, on ice at a concentration of 2 mM. Serial dilutions (1 µM-1 pM) were prepared in complete RPMI medium. 10 µl of each dilution was added to 1 ml culture.
# neonatal mouse calvaria = experiment: Bone resorption assay, calcium release from neonatal mouse calvaria in tissue culture; type: cell-based, Swiss albino mice; conditions: for bone resorption induced by six different agents: inducers: calcitriol, all-trans RA, 9-cis RA, PGE2, TNFα, IL-1α (tables 6 to 11)
# Protocol: A series of agents are known to induce or stimulate bone resorption. In this assay retinoid antagonists were tested for their capacity to inhibit or counteract the bone resorptive activity of bone resorption inducers.
# Bone resorption was determined by quantification of calcium release from neonatal mouse calvaria (skull bones) in a tissue culture system, into supernatant medium. Calvaria were prepared from 4 days old mice (body weight 4-4.5 g) of time controlled mated Swiss albino mice. Frontal and parietal calvarial parts were dissected under a stereo-microscope and halved along the median suture. Half calvaria from all animals were randomly distributed to 6-well culture dishes (NUNC), containing stainless steel grids to support the bones at the interface of gas and medium. The tissue is incubated in BGJ medium (Bioconcept, Switzerland) according to a specified formulation supplemented with 1 mg/ml BSA (bovine serum albumin, SIGMA). Calvaria were cultured at 37°C in humidified atmosphere of 5% CO2 and 95% air. After 24 hours of preincubation, they were transferred to new dishes containing 1.7 ml fresh medium and test substances. Bone resorption inducers and retinoid antagonists were tested either as single agents or in combination. The cultures were then run for 72 hours. Calcium concentrations in culture supernatants were measured immediately after each incubation period. Stable, free calcium was determined in 25 µl samples with a spectrophotometric method using a methylthymol blue containing kit (Biomérieux), (E.M. Gindler and J.D. King, Am. J. Clin. Pathol. 1972, 58, 376-382). The resorptive response was expressed as µg calcium released per half calvarium during 3 days treatment.
# Additional tests were done to examine calcium remaining in the calvaria. Calcium was extracted with 5% trichloroacetic acid (TCA) and determined in 50 µl samples after neutralization with NaOH. Furthermore, bone tissue viability was determined to exclude cytotoxicity. This was quantified by the colorimetric MTT tetrazolium test (T. Mosmann, J. Immunol. Methods 1983, 65, 55-63).
# Bone resorption induced by the various agents was determined by measuring the amount of calcium released from half calvaria into the supernatant medium. Calcium release is indicated in µg per half calvarium in 1.7 ml medium. Calcium release from calvaria into medium as well as uptake of calcium from medium into calvaria can be measured. Efficacy of retinoid antagonists to inhibit the activity of bone resorption inducers is expressed as % inhibition. It is calculated from the difference between the amount of released calcium by bone resorption inducers alone and the amount of released calcium by their combination with retinoid antagonists. Retinoid antagonists alone induce neither calcium release nor uptake. Basal resorption rate in vehicle controls was 5 or less than 5%.
# [1] = retinoid antagonist (1 µg) added after 16 hours together with SAC
# [2] = retinoid antagonist (1 µg) added at time 0 together with IFNγ
# [3] = 9-cis RA 0.1 μM + retinoid antagonist 1 μM
# [4] = 9-cis RA 0.1 μM + retinoid antagonist 10 μM
# [5] = 9-cis RA 1 μM + retinoid antagonist 10 μM
# [6] = Calcitriol 0.3 nM + retinoid antagonist 1 µM
# [7] = Calcitriol 1 nM + retinoid antagonist 1 µM
# [8] = Calcitriol 3 nM + retinoid antagonist 1 µM
# [9] = all-trans RA 0.1 μM + retinoid antagonist 1 μM
# [10] = all-trans RA 0.1 μM + retinoid antagonist 10 μM
# [11] = all-trans RA 1 μM + retinoid antagonist 10 μM
SMILES,PBMC IL-12 (IL-12; [1]),PBMC IL-12 (IL-12; [2]),Calcium release per half calvarium (neonatal mouse calvaria; [3]),Inhibition of bone resorption by retinoid antagonists (neonatal mouse calvaria; [3]),Calcium release per half calvarium (neonatal mouse calvaria; [4]),Inhibition of bone resorption by retinoid antagonists (neonatal mouse calvaria; [4]),Calcium release per half calvarium (neonatal mouse calvaria; [5]),Inhibition of bone resorption by retinoid antagonists (neonatal mouse calvaria; [5]),Calcium release per half calvarium (neonatal mouse calvaria; [6]),Inhibition of bone resorption by retinoid antagonists (neonatal mouse calvaria; [6]),Calcium release per half calvarium (neonatal mouse calvaria; [7]),Inhibition of bone resorption by retinoid antagonists (neonatal mouse calvaria; [7]),Calcium release per half calvarium (neonatal mouse calvaria; [8]),Inhibition of bone resorption by retinoid antagonists (neonatal mouse calvaria; [8]),Calcium release per half calvarium (neonatal mouse calvaria; [9]),Inhibition of bone resorption by retinoid antagonist (neonatal mouse calvaria; [9]),Calcium release per half calvarium (neonatal mouse calvaria; [10]),Inhibition of bone resorption by retinoid antagonist (neonatal mouse calvaria; [10]),Calcium release per half calvarium (neonatal mouse calvaria; [11]),Inhibition of bone resorption by retinoid antagonist (neonatal mouse calvaria; [11]),other results
"CCCCCCCOc1cc2c(cc1/C(C)=C/c1ccc(C(=O)O)cc1)C(C)(C)CCS2(=O)=O [Compound H, p-[(E)-2-[3',4'-Dihydro-4',4'-dimethyl-7'-(beptyloxy)-2'H-1-benzothiopyran-6'-yl]propenyl]benzoic acid 1',1'-dioxide]",401 pg/mL,503 pg/mL,4 ± 5 µg,82%,-5 ± 3 µg,123%,28 ± 7 µg,30%,0 ± 3 µg,100%,4 ± 3 µg,55.6%,11 ± 6 µg,15.4%,2 ± 11 µg,89.5%,-5 ± 4 µg,126.3%,-2 ± 3 µg,108.7%,bone resorption induced by six different agents (neonatal mouse calvaria): counteract bone resorption
"CCCCOc1c(\C(C)=C/C=C/C(C)=C/C(=O)O)cc(C(C)(C)C)cc1C(C)(C)C [Compound B, (2E,4E,6Z)-7-(3,5-di-tert.butyl-2-butyloxyphenyl]-3-methyl-2,4,6-octatrienoic acid]",367 pg/mL,568 pg/mL,2 ± 5 µg,33.3%,-4 ± 3 µg,123.5%,-6 ± 2 µg,133.3%,-1 ± 2 µg,125%,5 ± 3 µg,44.4%,4 ± 4 µg,69.2%,5 ± 4 µg,61.5%,-3 ± 4 µg,123.1%,10 ± 7 µg,41.2%,bone resorption induced by six different agents (neonatal mouse calvaria): counteract bone resorption
